Assay results: patent US12371428B2 (Exelixis, Inc., priority 2019, dated 2025)
Like-named read-outs stand apart in the source and are kept apart here.

Assays:
Type in all cases: cell-based
[1] = target: Met (phospho-Met, HGF-stimulated PC-3 prostate cancer cells) (Homo sapiens (Human), UniProt P08581); experiment: Met autophosphorylation ELISA in PC-3 cells (Example F); details: cellular activity, read-out: c-Met IC50
Method in brief: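 PC-3 cells, serum-starved 3 h, were treated with compounds (8-point dose curve, 0.3% DMSO final) for 1 h, then stimulated with 100 ng/mL recombinant human HGF for 10 min. Lysate phospho-Met (panTyr) was quantified by sandwich ELISA; IC50 from 4-parameter logistic fit.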

[2] = target: AXL (phospho-AXL, Gas6-stimulated A-172 glioblastoma cells) (Homo sapiens (Human), UniProt P30530); experiment: AXL autophosphorylation ELISA in A-172 cells (Example E); details: cellular activity, read-out: Axl IC50
Method in brief: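 Phospho-AXL was measured by ELISA in lysates of Gas6-stimulated A-172 cells, starved 24 h in serum-free medium and exposed 1 h to an 8-point compound dilution at 0.3% DMSO.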

[3] = target: KDR (phospho-KDR, VEGF165-stimulated HUVEC cells) (Homo sapiens (Human), UniProt P35968); experiment: KDR autophosphorylation ELISA in HUVEC cells (Example G); details: cellular activity
Method in brief: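 Inhibition of VEGF165-driven KDR autophosphorylation is measured in primary human umbilical vein endothelial cells after 24 h serum deprivation. Compound preincubation lasts 1 h before a 5-minute challenge with 100 ng/mL ligand, and phosphorylated receptor is then measured by ELISA in the lysates.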

[4] = target: Mer (phospho-Mer, MERTK-transfected 293A cells) (Homo sapiens (Human), UniProt Q12866); experiment: Mer autophosphorylation ELISA in transient transfected 293A cells (Example H); details: cellular activity
Method in brief: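 MERTK-transfected 293A; 8-pt dose, 1 h, serum-free, 0.3% DMSO. Cold lysis with orthovanadate and protease/phosphatase inhibitors. Phospho-Mer by DuoSet IC ELISA vs phospho-Mer standard. IC50: 4-PL fit; DMSO = 100%, reference inhibitor = 0%.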

[5] = Met autophosphorylation ELISA in PC-3 cells
[6] = AXL autophosphorylation ELISA in A-172 cells
[7] = KDR autophosphorylation ELISA in HUVEC cells
[8] = Mer autophosphorylation ELISA in transient transfected 293A cells

AXL (phospho-AXL, Gas6-stimulated A-172 glioblastoma cells), sequence (P30530 26-894): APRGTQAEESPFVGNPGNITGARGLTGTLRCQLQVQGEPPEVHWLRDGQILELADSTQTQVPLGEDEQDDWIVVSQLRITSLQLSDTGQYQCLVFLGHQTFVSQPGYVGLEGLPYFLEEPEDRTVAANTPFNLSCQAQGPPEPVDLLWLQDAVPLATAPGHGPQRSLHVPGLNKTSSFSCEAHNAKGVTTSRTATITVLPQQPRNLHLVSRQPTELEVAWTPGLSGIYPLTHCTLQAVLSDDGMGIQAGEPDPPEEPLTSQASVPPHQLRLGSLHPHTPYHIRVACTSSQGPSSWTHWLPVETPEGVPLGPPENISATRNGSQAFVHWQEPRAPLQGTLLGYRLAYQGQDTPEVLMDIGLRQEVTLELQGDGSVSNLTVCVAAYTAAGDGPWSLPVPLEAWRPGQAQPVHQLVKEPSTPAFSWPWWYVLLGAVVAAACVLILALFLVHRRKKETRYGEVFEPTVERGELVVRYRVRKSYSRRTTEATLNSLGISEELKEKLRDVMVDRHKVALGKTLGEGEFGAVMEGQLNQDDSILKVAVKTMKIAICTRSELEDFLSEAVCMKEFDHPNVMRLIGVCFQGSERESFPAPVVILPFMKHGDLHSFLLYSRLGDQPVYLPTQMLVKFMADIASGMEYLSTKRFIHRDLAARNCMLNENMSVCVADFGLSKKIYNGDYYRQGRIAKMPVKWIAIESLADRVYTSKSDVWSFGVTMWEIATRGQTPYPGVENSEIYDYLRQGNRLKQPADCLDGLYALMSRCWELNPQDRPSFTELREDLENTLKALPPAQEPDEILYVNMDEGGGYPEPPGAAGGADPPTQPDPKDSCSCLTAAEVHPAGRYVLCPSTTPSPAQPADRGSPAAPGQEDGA
KDR (phospho-KDR, VEGF165-stimulated HUVEC cells), sequence (P35968 20-1356): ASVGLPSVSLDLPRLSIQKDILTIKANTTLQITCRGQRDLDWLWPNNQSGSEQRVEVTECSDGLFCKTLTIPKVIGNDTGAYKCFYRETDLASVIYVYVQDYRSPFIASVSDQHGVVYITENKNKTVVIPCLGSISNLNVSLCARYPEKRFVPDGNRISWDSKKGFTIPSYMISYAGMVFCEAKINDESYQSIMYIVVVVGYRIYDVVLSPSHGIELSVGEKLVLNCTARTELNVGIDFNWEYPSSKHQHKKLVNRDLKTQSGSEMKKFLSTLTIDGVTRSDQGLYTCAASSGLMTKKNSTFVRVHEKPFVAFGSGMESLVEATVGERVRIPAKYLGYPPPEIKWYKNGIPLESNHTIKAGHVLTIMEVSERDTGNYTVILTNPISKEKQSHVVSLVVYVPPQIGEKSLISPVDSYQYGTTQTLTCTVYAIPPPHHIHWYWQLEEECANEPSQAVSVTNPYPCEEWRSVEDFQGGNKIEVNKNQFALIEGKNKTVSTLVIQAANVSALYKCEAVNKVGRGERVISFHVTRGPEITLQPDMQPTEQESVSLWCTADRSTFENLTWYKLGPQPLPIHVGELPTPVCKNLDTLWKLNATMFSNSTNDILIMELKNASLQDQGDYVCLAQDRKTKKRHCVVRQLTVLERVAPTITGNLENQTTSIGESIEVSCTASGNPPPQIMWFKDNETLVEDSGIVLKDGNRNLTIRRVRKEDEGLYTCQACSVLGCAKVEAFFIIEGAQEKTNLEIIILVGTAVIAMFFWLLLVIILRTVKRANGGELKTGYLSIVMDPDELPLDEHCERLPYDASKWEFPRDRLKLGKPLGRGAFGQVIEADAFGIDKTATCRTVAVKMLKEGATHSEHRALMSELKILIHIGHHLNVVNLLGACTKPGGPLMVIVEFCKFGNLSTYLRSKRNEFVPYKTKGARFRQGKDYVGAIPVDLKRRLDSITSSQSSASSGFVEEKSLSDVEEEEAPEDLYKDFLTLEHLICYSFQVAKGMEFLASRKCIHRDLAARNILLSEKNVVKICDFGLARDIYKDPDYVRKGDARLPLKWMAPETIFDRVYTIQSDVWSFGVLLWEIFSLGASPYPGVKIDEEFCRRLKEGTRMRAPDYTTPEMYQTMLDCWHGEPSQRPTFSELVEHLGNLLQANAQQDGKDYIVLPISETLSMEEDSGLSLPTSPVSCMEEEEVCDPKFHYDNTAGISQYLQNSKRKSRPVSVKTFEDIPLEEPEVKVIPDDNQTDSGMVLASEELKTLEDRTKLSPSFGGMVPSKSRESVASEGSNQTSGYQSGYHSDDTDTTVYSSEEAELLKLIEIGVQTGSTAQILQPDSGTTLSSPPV
Mer (phospho-Mer, MERTK-transfected 293A cells), sequence (Q12866 21-999): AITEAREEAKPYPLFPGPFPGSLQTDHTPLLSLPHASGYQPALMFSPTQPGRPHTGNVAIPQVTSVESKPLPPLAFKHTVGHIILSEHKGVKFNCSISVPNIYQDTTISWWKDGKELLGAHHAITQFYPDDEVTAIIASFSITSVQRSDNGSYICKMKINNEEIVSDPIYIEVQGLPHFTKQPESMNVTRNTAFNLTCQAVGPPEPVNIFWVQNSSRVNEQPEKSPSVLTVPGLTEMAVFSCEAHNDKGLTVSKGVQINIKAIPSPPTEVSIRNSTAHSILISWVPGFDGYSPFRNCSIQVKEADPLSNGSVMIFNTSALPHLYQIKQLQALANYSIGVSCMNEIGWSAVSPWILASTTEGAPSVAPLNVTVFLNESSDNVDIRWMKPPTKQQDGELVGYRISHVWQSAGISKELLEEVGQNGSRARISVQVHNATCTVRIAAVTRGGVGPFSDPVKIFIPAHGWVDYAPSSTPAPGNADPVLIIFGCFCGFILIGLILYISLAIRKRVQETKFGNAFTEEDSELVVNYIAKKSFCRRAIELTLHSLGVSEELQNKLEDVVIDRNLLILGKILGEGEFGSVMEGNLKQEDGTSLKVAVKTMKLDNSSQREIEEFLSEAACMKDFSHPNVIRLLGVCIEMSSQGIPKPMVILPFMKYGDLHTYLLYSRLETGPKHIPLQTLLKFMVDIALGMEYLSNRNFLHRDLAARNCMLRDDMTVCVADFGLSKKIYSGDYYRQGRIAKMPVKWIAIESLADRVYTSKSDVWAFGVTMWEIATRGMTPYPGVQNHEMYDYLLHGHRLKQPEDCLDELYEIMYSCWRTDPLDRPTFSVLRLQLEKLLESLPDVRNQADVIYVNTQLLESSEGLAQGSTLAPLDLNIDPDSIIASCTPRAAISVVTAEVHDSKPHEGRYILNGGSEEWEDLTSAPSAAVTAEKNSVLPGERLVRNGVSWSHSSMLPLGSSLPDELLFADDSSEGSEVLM
Met (phospho-Met, HGF-stimulated PC-3 prostate cancer cells), sequence (P08581 25-1390): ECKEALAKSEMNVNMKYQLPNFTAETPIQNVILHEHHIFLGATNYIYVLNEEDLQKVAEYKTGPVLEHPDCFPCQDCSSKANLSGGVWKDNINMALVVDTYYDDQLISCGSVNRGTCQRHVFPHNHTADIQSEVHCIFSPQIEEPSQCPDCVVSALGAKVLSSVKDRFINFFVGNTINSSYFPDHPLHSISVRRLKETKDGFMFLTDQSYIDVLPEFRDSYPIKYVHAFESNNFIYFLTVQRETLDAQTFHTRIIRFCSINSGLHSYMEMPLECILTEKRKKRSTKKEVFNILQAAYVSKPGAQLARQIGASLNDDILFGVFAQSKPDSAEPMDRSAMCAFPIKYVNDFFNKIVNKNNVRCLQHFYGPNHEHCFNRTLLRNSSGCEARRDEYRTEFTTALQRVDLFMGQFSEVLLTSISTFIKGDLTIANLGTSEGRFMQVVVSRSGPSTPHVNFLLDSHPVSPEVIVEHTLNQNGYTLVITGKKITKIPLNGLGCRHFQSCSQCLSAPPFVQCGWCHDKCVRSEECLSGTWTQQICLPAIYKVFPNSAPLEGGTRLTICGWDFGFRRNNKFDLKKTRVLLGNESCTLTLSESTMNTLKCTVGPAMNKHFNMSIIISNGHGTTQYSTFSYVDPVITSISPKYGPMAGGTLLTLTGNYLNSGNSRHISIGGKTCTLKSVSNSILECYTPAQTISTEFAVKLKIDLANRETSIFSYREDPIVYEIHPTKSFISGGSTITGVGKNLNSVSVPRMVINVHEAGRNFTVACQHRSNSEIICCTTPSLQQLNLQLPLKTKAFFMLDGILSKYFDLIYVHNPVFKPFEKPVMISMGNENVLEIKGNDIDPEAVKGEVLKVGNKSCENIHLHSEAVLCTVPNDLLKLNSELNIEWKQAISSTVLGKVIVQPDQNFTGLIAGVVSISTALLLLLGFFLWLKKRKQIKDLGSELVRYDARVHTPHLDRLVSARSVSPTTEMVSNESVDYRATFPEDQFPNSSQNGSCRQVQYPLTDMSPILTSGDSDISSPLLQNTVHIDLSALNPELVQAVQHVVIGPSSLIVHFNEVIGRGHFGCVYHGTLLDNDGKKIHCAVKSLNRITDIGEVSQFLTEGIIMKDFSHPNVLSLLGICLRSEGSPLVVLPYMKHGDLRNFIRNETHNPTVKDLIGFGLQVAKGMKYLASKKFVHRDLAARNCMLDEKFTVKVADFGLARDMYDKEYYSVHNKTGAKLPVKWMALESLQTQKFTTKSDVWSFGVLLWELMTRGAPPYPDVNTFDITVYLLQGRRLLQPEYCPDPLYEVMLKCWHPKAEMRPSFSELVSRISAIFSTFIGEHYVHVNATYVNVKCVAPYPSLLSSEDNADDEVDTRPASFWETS

SMILES | IC50 ([1]; PC-3 cells) | IC50 ([2]; A-172 cells) | IC50 ([3]; HUVEC cells) | IC50 ([4]; transfected 293A cells) | IC50 [1, 5] | IC50 [2, 6] | IC50 [3, 7] | IC50 [4, 8]
COc1cc2nccc(Oc3ccc(NC(=O)c4c5n(cc(-c6ccc(F)cc6)c4=O)CCOC5)cc3F)c2nc1OC [Compound 808, N-[4-[(6,7-dimethoxy-1,5-naphthyridin-4-yl)oxy]-3-fluorophenyl]-7-(4-fluorophenyl)-8-oxo-3,4-dihydro-1H-pyrido[2,1-c][1,4]oxazine-9-carboxamide] | < 100 nM | < 100 nM | > 300 nM | < 100 nM |  |  |  | 
COc1cnc2c(Oc3ccc(NC(=O)c4c(C)n(C)c(C)c(-c5ccc(F)cc5C)c4=O)cc3F)ccnc2c1 [Compound 771, N-[3-fluoro-4-[(7-methoxy-1,5-naphthyridin-4-yl)oxy]phenyl]-5-(4-fluoro-2-methylphenyl)-1,2,6-trimethyl-4-oxopyridine-3-carboxamide] |  |  |  |  | < 100 nM | < 100 nM | > 300 nM | < 100 nM
COc1cc2nccc(Oc3ccc(NC(=O)c4c5c(cn(-c6ccc(F)cc6)c4=O)C(=O)CCC5)cc3)c2nc1OC [Compound 360, N-[4-[(6,7-dimethoxy-1,5-naphthyridin-4-yl)oxy]phenyl]-2-(4-fluorophenyl)-3,8-dioxo-6,7-dihydro-5H-isoquinoline-4-carboxamide] |  |  |  |  | 100 to 300 nM | < 100 nM | > 300 nM | < 100 nM
C=C(C)c1cnc2c(Oc3ccc(NC(=O)c4c(C)nc(C)c(-c5ccc(F)cc5C)c4O)cc3F)ccnc2c1 [Compound 461, 5-(4-fluoro-2-methylphenyl)-N-[3-fluoro-4-[(7-prop-1-en-2-yl-1,5-naphthyridin-4-yl)oxy]phenyl]-4-hydroxy-2,6-dimethylpyridine-3-carboxamide] |  |  |  |  | < 100 nM | < 100 nM | < 100 nM | < 100 nM
COc1cnc2c(Oc3ccc(NC(=O)c4cn(CC(F)F)c(C)c(-c5ccc(F)cc5C)c4=O)cc3F)ccnc2c1 [Compound 723, 1-(2,2-difluoroethyl)-N-[3-fluoro-4-[(7-methoxy-1,5-naphthyridin-4-yl)oxy]phenyl]-5-(4-fluoro-2-methylphenyl)-6-methyl-4-oxopyridine-3-carboxamide] |  |  |  |  | < 100 nM | < 100 nM | > 300 nM | < 100 nM
C=C(C)c1cnc2c(Oc3ccc(NC(=O)c4n[nH]c(C)c(-c5ccc(F)cc5C)c4=O)cc3F)ccnc2c1 [Compound 463, 5-(4-fluoro-2-methylphenyl)-N-[3-fluoro-4-[(7-prop-1-en-2-yl-1,5-naphthyridin-4-yl)oxy]phenyl]-6-methyl-4-oxo-1H-pyridazine-3-carboxamide] |  |  |  |  | < 100 nM | < 100 nM | < 100 nM | < 100 nM
COc1nc2c(Oc3ccc(NC(=O)c4n[nH]c(C)c(-c5ccc(F)cc5)c4=O)cc3F)ccnc2cc1C [Compound 472, N-[3-fluoro-4-[(6-methoxy-7-methyl-1,5-naphthyridin-4-yl)oxy]phenyl]-5-(4-fluorophenyl)-6-methyl-4-oxo-1H-pyridazine-3-carboxamide] |  |  |  |  | < 100 nM | < 100 nM | < 100 nM | < 100 nM
COc1cnc2c(Oc3ccc(NC(=O)c4c(C)c(Br)c(C)n(-c5ccc(F)cc5)c4=O)cc3F)ccnc2c1 [Compound 314, 5-Bromo-N-[3-fluoro-4-[(7-methoxy-1,5-naphthyridin-4-yl)oxy]phenyl]-1-(4-fluorophenyl)-4,6-dimethyl-2-oxopyridine-3-carboxamide] |  |  |  |  | < 100 nM | < 100 nM | < 100 nM | < 100 nM
COc1cc2nccc(Oc3ccc(NC(=O)c4c(C)nc(C)c(-c5ccc(F)cc5C)c4O)cc3F)c2nc1Cl [Compound 736, N-[4-[(6-chloro-7-methoxy-1,5-naphthyridin-4-yl)oxy]-3-fluorophenyl]-5-(4-fluoro-2-methylphenyl)-4-hydroxy-2,6-dimethylpyridine-3-carboxamide] |  |  |  |  | < 100 nM | < 100 nM | < 100 nM | < 100 nM
COCCOc1cc2nccc(Oc3ccc(NC(=O)c4c(C)cc(C)n(-c5ccc(F)cc5)c4=O)cc3F)c2nc1OC [Compound 485, N-[3-fluoro-4-[[6-methoxy-7-(2-methoxyethoxy)-1,5-naphthyridin-4-yl]oxy]phenyl]-1-(4-fluorophenyl)-4,6-dimethyl-2-oxopyridine-3-carboxamide] |  |  |  |  | < 100 nM | < 100 nM | < 100 nM | < 100 nM
COc1cc2nccc(Oc3ccc(NC(=O)c4cn5c(c(-c6ccc(F)cc6)c4=O)CCCC5)cc3F)c2nc1OC [Compound 363, N-[4-[(6,7-dimethoxy-1,5-naphthyridin-4-yl)oxy]-3-fluorophenyl]-1-(4-fluorophenyl)-2-oxo-6,7,8,9-tetrahydroquinolizine-3-carboxamide] |  |  |  |  | < 100 nM | < 100 nM | < 100 nM | < 100 nM
COCCOc1cc2c(Oc3ccc(NC(=O)c4cn(C)c(C)c(-c5ccc(F)cc5)c4=O)cc3F)ccnc2nc1OC [Compound 760, N-[3-fluoro-4-[[7-methoxy-6-(2-methoxyethoxy)-1,8-naphthyridin-4-yl]oxy]phenyl]-5-(4-fluorophenyl)-1,6-dimethyl-4-oxopyridine-3-carboxamide] |  |  |  |  | < 100 nM | < 100 nM | > 300 nM | < 100 nM
COc1cc2nccc(Oc3ccc(NC(=O)c4c(C)n(C)c(C)c(-c5ccc(F)cc5C)c4=O)cc3F)c2nc1OC [Compound 774, N-[4-[(6,7-dimethoxy-1,5-naphthyridin-4-yl)oxy]-3-fluorophenyl]-5-(4-fluoro-2-methylphenyl)-1,2,6-trimethyl-4-oxopyridine-3-carboxamide] |  |  |  |  | < 100 nM | < 100 nM | 100 to 300 nM | < 100 nM
Cc1ccc(C(=O)Nc2ccc(Oc3ccnc4cnc(Cl)cc34)c(F)c2)c(=O)n1-c1ccc(F)cc1 [Compound 496, N-[4-[(6-chloro-1,7-naphthyridin-4-yl)oxy]-3-fluorophenyl]-1-(4-fluorophenyl)-6-methyl-2-oxopyridine-3-carboxamide] |  |  |  |  | < 100 nM | < 100 nM | < 100 nM | < 100 nM
COc1cc2nccc(Oc3ccc(NC(=O)c4cn(CC(F)F)c(C)c(-c5ccc(F)cc5C)c4=O)cc3F)c2nc1OC [Compound 730, 1-(2,2-difluoroethyl)-N-[4-[(6,7-dimethoxy-1,5-naphthyridin-4-yl)oxy]-3-fluorophenyl]-5-(4-fluoro-2-methylphenyl)-6-methyl-4-oxopyridine-3-carboxamide] |  |  |  |  | < 100 nM | < 100 nM | 100 to 300 nM | < 100 nM
COc1cnc2c(Oc3ccc(NC(=O)c4c(C)c(C)c(C)n(-c5ccc(F)cc5)c4=O)cc3)ccnc2c1 [Compound 317, 1-(4-Fluorophenyl)-N-[4-[(7-methoxy-1,5-naphthyridin-4-yl)oxy]phenyl]-4,5,6-trimethyl-2-oxopyridine-3-carboxamide] |  |  |  |  | < 100 nM | < 100 nM | < 100 nM | < 100 nM
C=Cc1c(C)c(C(=O)Nc2ccc(Oc3ccnc4cc(OC)c(OC)nc34)c(F)c2)c(=O)n(-c2ccc(F)cc2)c1C [Compound 327, N-[4-[(6,7-Dimethoxy-1,5-naphthyridin-4-yl)oxy]-3-fluorophenyl]-5-ethenyl-1-(4-fluorophenyl)-4,6-dimethyl-2-oxopyridine-3-carboxamide] |  |  |  |  | < 100 nM | < 100 nM | < 100 nM | < 100 nM
C=Cc1c(C)c(C(=O)Nc2ccc(Oc3ccnc4cc(OCCOC)cnc34)c(F)c2)c(=O)n(-c2ccc(F)cc2)c1C [Compound 742, 5-ethenyl-N-[3-fluoro-4-[[7-(2-methoxyethoxy)-1,5-naphthyridin-4-yl]oxy]phenyl]-1-(4-fluorophenyl)-4,6-dimethyl-2-oxopyridine-3-carboxamide] |  |  |  |  | < 100 nM | < 100 nM | > 300 nM | < 100 nM
COc1cc2nccc(Oc3ccc(NC(=O)c4c(C)ccn(-c5ccc(F)cc5C)c4=O)cc3F)c2nc1OC [Compound 311, N-[4-[(6,7-Dimethoxy-1,5-naphthyridin-4-yl)oxy]-3-fluorophenyl]-1-(4-fluoro-2-methylphenyl)-4-methyl-2-oxopyridine-3-carboxamide] |  |  |  |  | < 100 nM | < 100 nM | < 100 nM | < 100 nM
COc1cnc2c(Oc3cc(F)c(NC(=O)c4c(C)nc(C)c(-c5ccc(F)cc5C)c4O)cc3F)ccnc2c1 [Compound 751, N-[2,5-difluoro-4-[(7-methoxy-1,5-naphthyridin-4-yl)oxy]phenyl]-5-(4-fluoro-2-methylphenyl)-4-hydroxy-2,6-dimethylpyridine-3-carboxamide] |  |  |  |  | < 100 nM | < 100 nM | < 100 nM | < 100 nM
